Laboratory results from paper PMC11901765, “Discovery of N-(2-Acetamidobenzo[d]thiazol-6-yl)-2-phenoxyacetamide Derivatives as Novel Potential BCR-ABL1 Inhibitors Through Structure-Based Virtual Screening” (Molecules, 2025).
Where two headings read alike, the source gives them in different places. One block for each molecule: values may come before it.

How the values were obtained:
HL60 = test: CCK-8 viability assay, HL60 cells; format: cell-based
Description: (§1) Cell viability was assessed using the Cell Counting Kit-8 (CCK-8) assay. […] After 72 h of incubation, 10 μL of CCK-8 reagent was added to each well, and the plates were further incubated for 2–4 h. Absorbance was measured at 450 nm using a microplate reader. Dose-response curves were generated and analyzed using GraphPad Prism 8 (version 8.4.3.686).

K562 cells [1] = test: Apoptosis assay (Annexin V/PI flow cytometry); conditions: 10m 10 μM, asciminib 5 μM, 48 or 72 h
Description: Cell apoptosis was evaluated through Annexin V and propidium iodide (PI) dual staining using an Annexin V-FITC Apoptosis Detection Kit (Vazyme, #A211-02, Nanjing, China) following the manufacturer’s protocol.

MV411 = test: CCK-8 viability assay, MV411 cells; format: cell-based
Description: as §1

parental Ba/F3 cells = test: CCK-8 viability assay, parental Ba/F3 cells; format: cell-based; conditions: mean ± SD; for GI50: CCK8 kit; for IC50: Table 3
Description: as §1

Ba/F3 (BCR-ABL1) cells = test: CCK-8 viability assay, Ba/F3 (BCR-ABL1) cells; format: cell-based; conditions: for GI50: Mus musculus, BaF3, CCK8 kit; for GI50 / Ba/F3 (BCR-ABL1) Inhibition (%) / IC50: mean ± SD; for Ba/F3 (BCR-ABL1) Inhibition (%): measured at 10 μM; for IC50: Table 3
Description: as §1

K562 cells [2] = test: Synergy study with asciminib (CCK-8, SynergyFinder 3.0, ZIP model); format: cell-based
Description: The drug combination effects were quantified as percentage inhibition of cell viability. The experimental data were analyzed using SynergyFinder 3.0, with a four-parameter logistic regression (LL4) model selected for curve fitting and data analysis. The Synergy Score based on the ZIP (Zero Interaction Potency) model is used to evaluate the synergistic effects of drug combinations.

[3] = test system: BCR-ABL-dependent signaling (p-ABL1, p-STAT5, p-CRKL) in K562 cells; test: Western blot of BCR-ABL-dependent signaling; format: cell-based; conditions: 3.3 and 10 μM, 1 h
Description: Western blot analysis was conducted following established protocols. K562 cells were treated with varying concentrations of the test compound for 60 min, followed by protein extraction using RIPA buffer. Protein quantification was performed using bicinchoninic acid assay, and 30–60 μg of protein samples were resolved by 10% sodium dodecyl sulfate-polyacrylamide gel electrophoresis before being transferred onto nitrocellulose membranes. Membranes were probed with primary antibodies overnight at 4 °C. Following incubation with horseradish peroxidase (HRP)-conjugated secondary antibodies (Thermo Scientific, Waltham, MA, USA), protein bands were detected using a chemiluminescent HRP substrate (Millipore Corporation, #WBKLS0500, Billerica, MA, USA) and imaged with a Syngene GeneGnome-XRQ-NPC imager (Synoptics, Britain). Quantitative analysis was performed by measuring band intensity using ImageJ (version 1.43) software. The following primary antibodies were used: c-Abl (ABclonal, #A0282, Woburn, MA, USA), phosphor-c-Abl (ABclonal, #AP0001), STAT5 (ABclonal, #A5029), phosphor-STAT5 (ABclonal, #AP0887), CRKL (ABclonal, #A11735), and phospho-CRKL (ABclonal, #AP0824).

[4] = test system: Ba/F3 (BCR-ABL^T315I) cells; test: CCK-8 viability assay, Ba/F3 (BCR-ABL^T315I) cells; format: cell-based; conditions: Table 3; mean ± SD
Description: as §1

K562 cells [5] = test: CCK-8 viability assay, K562 cells; format: cell-based; conditions: 72 h; read-out: GI50 (IC50) K562 cells
Description: Cell viability was assessed using the Cell Counting Kit-8 (CCK-8) assay. Cells were seeded in 96-well plates at a density of 10,000 cells per well in RPMI 1640 medium. Test compounds were prepared by serially diluting stock solutions 3-fold in DMSO to generate an eight-point concentration gradient (100 μM to 0.045 μM), followed by addition to the cultured cells. After 72 h of incubation, 10 μL of CCK-8 reagent was added to each well, and the plates were further incubated for 2–4 h. Absorbance was measured at 450 nm using a microplate reader. Dose-response curves were generated and analyzed using GraphPad Prism 8 (version 8.4.3.686).

[6] = Table 3, mean ± SD, read-out: IC50 HL60
[7] = Table 3, mean ± SD, read-out: IC50 MV411

Molecule: O=C(Nc1ccc(OC(F)(F)Cl)cc1)c1cnc(N2CC[C@@H](O)C2)c(-c2cc[nH]n2)c1 [Asciminib, reference compound]
IC50 (HL60; Homo sapiens, HL-60, read-out: IC50 HL60): > 100 µM
apoptosis induction (in words) (K562 cells [1]): significantly induced apoptosis
IC50 (MV411; Homo sapiens, MV4-11, read-out: IC50 MV411): > 100 µM
GI50 (parental Ba/F3 cells; Mus musculus, BaF3): > 100 µM
IC50 (parental Ba/F3 cells; Mus musculus, BaF3): > 100 µM

GI50 (Ba/F3 (BCR-ABL1) cells): 6.4 ± 1.6 µM
Molecule: CCC(=O)Nc1nc2ccc(NC(=O)COc3ccc(Cl)cc3)cc2s1 [Compound A8]
inhibition of Ba/F3 (BCR-ABL1) cells (in words) (Ba/F3 (BCR-ABL1) cells; 10 μM): showed inhibition potency
GI50 (parental Ba/F3 cells; Mus musculus, BaF3): > 100 µM

GI50 (Ba/F3 (BCR-ABL1) cells): 10.7 ± 2.6 µM
Molecule: CCC(=O)Nc1nc2ccc(NC(=O)COc3ccccc3)cc2s1 [Compound A12]
GI50 (parental Ba/F3 cells; Mus musculus, BaF3): > 100 µM

GI50 (Ba/F3 (BCR-ABL1) cells): 19.5 ± 4.7 µM
Molecule: O=C(COc1ccccc1)Nc1ccc2nc(NC(=O)c3ccccc3)sc2c1 [Compound A13]
GI50 (parental Ba/F3 cells; Mus musculus, BaF3): > 100 µM

GI50 (Ba/F3 (BCR-ABL1) cells): 1.2 ± 0.2 µM
Molecule: CS(=O)(=O)Nc1nc2ccc(NC(=O)COc3ccccc3)cc2s1 [Compound A14]
GI50 (parental Ba/F3 cells; Mus musculus, BaF3): 37.6 ± 5.7 µM

GI50 (Ba/F3 (BCR-ABL1) cells): 3.9 ± 0.5 µM
Molecule: Cc1ccc(S(=O)(=O)Nc2nc3ccc(NC(=O)COc4ccccc4)cc3s2)cc1 [Compound A15]
GI50 (parental Ba/F3 cells; Mus musculus, BaF3): 42.9 ± 10.4 µM

Molecule: Cc1ccc(NC(=O)c2ccc(CN3CCN(C)CC3)cc2)cc1Nc1nccc(-c2cccnc2)n1 [Imatinib, imatinib, reference compound]
effect in combination with asciminib (in words) (K562 cells [2]): antagonistic effect

Molecule: N-(2-Acetamidobenzo[d]thiazol-6-yl)-2-(2-chlorophenoxy)acetamide [Compound 10j]
Ba/F3 (BCR-ABL1) Inhibition (%) (Ba/F3 (BCR-ABL1) cells): 68 ± 2%

Molecule: N-(2-Acetamidobenzo[d]thiazol-6-yl)-2-(2-fluorophenoxy)acetamide [Compound 10g]
Ba/F3 (BCR-ABL1) Inhibition (%) (Ba/F3 (BCR-ABL1) cells): 65 ± 3%

IC50 (HL60; [6]): 54.2 ± 5.5 µM
IC50 (Ba/F3 (BCR-ABL1) cells): 0.63 ± 0.1 µM
IC50 [4]: 25.2 ± 1.1 µM
IC50 (K562 cells [5]): 0.98 µM
IC50 (MV411; [7]): > 100 µM
Molecule: N-(2-Acetamidobenzo[d]thiazol-6-yl)-2-(3,4-dichlorophenoxy)acetamide [Compound 10m]
inhibition of BCR-ABL-dependent signaling pathway (in words) [3]: potently inhibited
Ba/F3 (BCR-ABL1) Inhibition (%) (Ba/F3 (BCR-ABL1) cells): 93 ± 5%
apoptosis induction (in words) (K562 cells [1]): significantly induced apoptosis
effect in combination with asciminib (in words) (K562 cells [2]): powerful synergistic activity
IC50 (parental Ba/F3 cells): > 100 µM

Molecule: N-(2-Acetamidobenzo[d]thiazol-6-yl)-2-(3-chlorophenoxy)acetamide [Compound 10k]
Ba/F3 (BCR-ABL1) Inhibition (%) (Ba/F3 (BCR-ABL1) cells): 60 ± 6%

Molecule: N-(2-Acetamidobenzo[d]thiazol-6-yl)-2-(3-fluorophenoxy)acetamide [Compound 10h]
Ba/F3 (BCR-ABL1) Inhibition (%) (Ba/F3 (BCR-ABL1) cells): 61 ± 5%

Molecule: N-(2-Acetamidobenzo[d]thiazol-6-yl)-2-(4-chlorophenoxy)acetamide [Compound 10l]
Ba/F3 (BCR-ABL1) Inhibition (%) (Ba/F3 (BCR-ABL1) cells): 71 ± 4%

Molecule: N-(2-Acetamidobenzo[d]thiazol-6-yl)-2-(4-fluorophenoxy)acetamide [Compound 10i]
Ba/F3 (BCR-ABL1) Inhibition (%) (Ba/F3 (BCR-ABL1) cells): 58 ± 2%

Molecule: N-(2-Acetamidobenzo[d]thiazol-6-yl)-2-(m-tolyloxy)acetamide [Compound 10t]
Ba/F3 (BCR-ABL1) Inhibition (%) (Ba/F3 (BCR-ABL1) cells): 28 ± 5%

IC50 (HL60; [6]): > 100 µM
IC50 (Ba/F3 (BCR-ABL1) cells): 2.2 ± 0.5 µM
IC50 [4]: > 100 µM
IC50 (K562 cells [5]): 2.7 µM
IC50 (MV411; [7]): > 100 µM
Molecule: N-(2-Acetamidobenzo[d]thiazol-6-yl)-2-(naphthalen-2-yloxy)acetamide [Compound 10f]
Ba/F3 (BCR-ABL1) Inhibition (%) (Ba/F3 (BCR-ABL1) cells): 88 ± 2%
IC50 (parental Ba/F3 cells): > 100 µM

Molecule: N-(2-Acetamidobenzo[d]thiazol-6-yl)-2-(o-tolyloxy)acetamide [Compound 10s]
Ba/F3 (BCR-ABL1) Inhibition (%) (Ba/F3 (BCR-ABL1) cells): 22 ± 2%

Molecule: N-(2-Acetamidobenzo[d]thiazol-6-yl)-2-phenoxyacetamide [Compound 10a]
Ba/F3 (BCR-ABL1) Inhibition (%) (Ba/F3 (BCR-ABL1) cells): 52 ± 5%
